Experiment [1] concerns the target T1, dN-SARM1 protein (Homo sapiens, UniProt Q6SZW1).
T1 construct: the N-terminal mitochondrial localization signal peptide of SARM1 was removed
T1 sequence (Q6SZW1 28-724): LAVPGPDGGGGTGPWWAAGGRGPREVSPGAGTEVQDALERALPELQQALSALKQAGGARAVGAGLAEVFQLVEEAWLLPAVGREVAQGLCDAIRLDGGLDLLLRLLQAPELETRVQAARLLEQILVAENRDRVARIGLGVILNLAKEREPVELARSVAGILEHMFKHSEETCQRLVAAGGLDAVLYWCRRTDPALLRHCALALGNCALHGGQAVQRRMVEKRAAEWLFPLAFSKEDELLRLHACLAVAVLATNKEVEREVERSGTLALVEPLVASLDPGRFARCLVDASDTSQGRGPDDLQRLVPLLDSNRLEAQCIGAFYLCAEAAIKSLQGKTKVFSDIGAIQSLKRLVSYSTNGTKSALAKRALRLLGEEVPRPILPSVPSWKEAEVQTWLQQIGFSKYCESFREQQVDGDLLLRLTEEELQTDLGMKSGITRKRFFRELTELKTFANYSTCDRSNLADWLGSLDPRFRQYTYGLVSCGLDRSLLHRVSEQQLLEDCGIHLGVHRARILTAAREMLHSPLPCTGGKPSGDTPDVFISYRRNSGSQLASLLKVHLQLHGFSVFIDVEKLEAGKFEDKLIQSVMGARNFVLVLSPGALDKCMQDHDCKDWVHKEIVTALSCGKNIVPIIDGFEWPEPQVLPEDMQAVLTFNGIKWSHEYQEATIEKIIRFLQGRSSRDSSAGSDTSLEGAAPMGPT
As to the kind of experiment: In vitro biochemical assay for inhibiting SARM1 enzymatic activity (IC50), PC6 fluorescence method. Particulars: 50 μM NAD, 50 μM PC6, 50 μM NMN activator. In a few lines: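 dN-SARM1 (0.05 μg/ml, 50 mM Tris-HCl pH 7.5) preincubated 10 min at room temperature with compound in serial dilution from 200 μM. Reaction started with final 50 μM NAD, 50 μM PC6 substrate and 50 μM NMN activator, 30 min at room temperature. PC6 fluorescence (ex 390/em 520 nm) rate gives activity; IC50 derived.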

Experiment [2] has as its target T2, SARM1 protein in iSARM1 (HEK293) cells (Homo sapiens, UniProt Q6SZW1).
T2 construct: The full-length SARM1 was synthesized into the pUC57 plasmid by WZ Biosciences Inc., and PCR was performed using pUC57-SARM1 as a DNA template
T2 sequence (Q6SZW1 28-724): T1 sequence (Q6SZW1 28-724)
As to the kind of experiment: Inhibitory activity in inducible SARM1 overexpressing cell line, intracellular cADPR level. In kind it is cell-based. The settings on record: activator CZ-48 100 μM, cADPR content. As to the method: In this example, the gene sequence of SARM1 was amplified using PCR, and constructed into pInducer20-neo plasmid. pInducer20-SARM1 virus was packaged in a liposome and infected HEK293 to obtain an inducible SARM1-overexpressing cell line, which was labeled as iSARM1 (HEK293). The specific preparation was as follows:
First, a 96-well culture plate was treated with 0.05 mg/ml polylysine for 5 minutes and washed once with PBS. 3×10^4 iSARM1 (HEK293) cells were plated into the 96-well plate and cultured overnight in a 37° C. and 5% incubator. The next day, the cells were added with an inhibitor with a final concentration of 50 μM, incubated in the incubator for 1.5 hours, added with activator CZ-48 with a final concentration of 100 μM, and incubated for 16 hours. Meanwhile, the cells without adding CZ-48 or without adding drug were set as control group. Finally, the intracellular cADPR level was detected to represent the activity of SARM1, and the inhibition rate of SARM1 in cells by 50 μM inhibitor was calculated.
The cADPR measurement was performed as follows. First, the cells were washed once with PBS, and added with 150 μl of pre-cooled 0.6M perchloric acid (PCA) to quickly lyse the cells and precipitate the protein. The PCA supernatant was transferred to a 1.5 ml centrifuge tube. The protein in the culture medium was dissolved again with 100 μl of 1M NaOH. The supernatant was added with 0.5 ml of organic reagent mixture (trioctylamine:chloroform=1:3) to extract PCA from water. After sufficient shaking, the mixture was centrifuged at 12,000 rpm for 10 minutes. The solution was divided into 3 layers: the upper aqueous phase, containing the small molecules of interest; the lower organic phase, in which PCA was dissolved; and a thin protein layer between the upper and lower layers. The upper layer was transferred to a new centrifuge tube, added with 1M Tris-Mg at a ratio of 1:100 (1M Tris (pH 8.0): 1M MgCl2=9:1), added with NADase at a ratio of 1:250, and treated at 37° C. overnight to remove NAD^+ from the mixed solution. After the treatment was completed, the mixed solution was filtered using Millipore's 10 K 96-well filter plate to remove NADase.
The cADPR content in the solution was determined through Cycling analysis method. The specific steps were as follows: 20 μl of the sample to be tested or the cADPR standard was taken and added to a 96-well opaque white plate. Preparation of reaction solution: 9.6 ml of PBS (pH 7.4), 200 μl of ethanol, 150 μl of 1 mg/ml AD, 10 μl of 10 mM FMN, 5 μl of 18 mg/ml Diaphorase, 10 μl of 10 mM Resazurin, and 100 μl of 1M Nam. Half of the reaction solution was divided and added with 0.2 μg/ml cyclase. The reaction solution without adding cyclase was used as control experiment. Each sample was divided into two groups, 3 replicates in each group. The reaction solutions containing or not containing cyclase were added to each group to perform the reaction. The reaction kinetic curve within 30 minutes was recorded (Ex:Em=544/599). The average slope of the reaction was calculated. Conversion was performed according to cADPR standard to obtain the accurate cADPR content. A curve of intracellular cADPR content vs corresponding inhibitor concentration was plotted. The half inhibitory concentration of the inhibitor was calculated.

By IC50 is commonly meant the concentration that gives 50% inhibition. A high value points to weaker potency. The EC50 is the midpoint of the concentration-response curve. A higher EC50 goes with weaker potency.

Take `CN(C(=O)OC(C)(C)C)c1ccc2ncc(-c3cccc(NC(=O)COCCOCC(=O)Nc4cccc(-c5cnc6ccc(N(C)C(=O)OC(C)(C)C)cn56)c4)c3)n2c1` [Compound 116, ((((((2,2′-(ethane-1,2-diylbis(oxy))bis(acetyl))bis(azadialkyl))bis(31-phenylene))bis(imidazo[1,2-a]pyridin-3,6-diyl))bis(tert butylmethylcarbamate)]: the IC50 in experiment [1] was less than 1000 nM. The EC50 in experiment [2] is less than 1000 nM.
`Cc1ncsc1-c1ccc(CNC(=O)[C@@H]2C[C@@H](O)CN2C(=O)[C@@H](NC(=O)COCCOCCOCC(=O)N(C)c2ccc3ncc(-c4ccccc4Cl)n3c2)C(C)(C)C)cc1` [Compound 118, (2S,4R)-1-((S)-15-(tert-butyl)-2-(3-(2-chlorophenyl)imidazo[1,2-a]pyridin-6-yl)-3,13-dioxo-5,8,11-trioxa-2,14-diazahexadecane-16-acyl)-4-hydroxy-N-(4-(4-methylthiazol-5-yl)benzyl) pyrrolidin-2-carboxamide]: the IC50 in experiment [1] fell in the range of 1000 to 10000 nM. Besides, in experiment [2], the EC50 is less than 1000 nM.
`Cc1ncsc1-c1ccc(CNC(=O)[C@@H]2C[C@@H](O)CN2C(=O)[C@@H](NC(=O)COCCOCCOCC(=O)Nc2cccc(-c3cnc4ccc(N(C)C(=O)OC(C)(C)C)cn34)c2)C(C)(C)C)cc1` [Compound 119, Tert-butyl (3-(3-((S)-13-((2S,4R)-4-hydroxy-2-((4-(4-methylthiazol-5-yl)benzyl)carbamoyl)pyrrolidin-1-carbonyl)-14,14-dimethyl-11-oxo-3,6,9-trioxa-12-azaglutaramide)phenyl)imidazo[1,2-a]pyridin-6-yl)(methyl)carbamate] returned an IC50 in experiment [1] of less than 1000 nM. Further, the EC50 in experiment [2] was in the range of 1000 to 10000 nM.
The corresponding values for `CN(C(=O)OC(C)(C)C)c1ccc2ncc(-c3cccc(NC(=O)COCCOCCOCC(=O)Nc4cccc(-c5cnc6ccc(N(C)C(=O)OC(C)(C)C)cn56)c4)c3)n2c1` [Compound 121, ((((2,2′-((oxybis(ethane-2,1-diyl))bis(oxy))bis(acetyl))bis(azadiyl))bis(3,1-phylene))bis(imidazo[1,2-a]pyridin-3,6-diyl))bis(tert-butyl (methyl)carbamate)] are less than 1000 nM and less than 1000 nM.
`CN(C(=O)OC(C)(C)C)c1ccc2ncc(-c3cccc(OCCOCc4ccccc4)c3)n2c1` [Compound 156] came in with an IC50 in experiment [1] of 1000 to 10000 nM. The compound further came in with an EC50 in experiment [2] of 1000 to 10000 nM.
As to `CNc1ccc2ncc(-c3cccc(OCCOCc4ccccc4)c3)n2c1` [Compound 157], the IC50 in experiment [1] lay within 1000 to 10000 nM. In experiment [2], this compound returned an EC50 of 1000 to 10000 nM.
In experiment [1], `CN(C(=O)OC(C)(C)C)c1ccc2ncc(-c3cccc(N(C)C(=O)C4CCOCC4)c3)n2c1` [Compound 158, tert-butyl methyl (3-(3-(N-methyltetrahydro-2H-pyran-4-carboxamido)phenyl)imidazo[1,2-a]pyridin-6-yl)carbamate] came in with an IC50 of 1000 to 10000 nM. The compound further registered a 50% effective concentration (EC50) in experiment [2] of less than 1000 nM.
With `CNc1ccc2ncc(-c3cccc(N(C)C(=O)C4CCOCC4)c3)n2c1` [Compound 159], the IC50 in experiment [1] is less than 1000 nM. The compound further had an EC50 in experiment [2] of 1000 to 10000 nM.
As for `CN(C(=O)COC1CCOC1)c1cccc(-c2cnc3ccc(N(C)C(=O)OC(C)(C)C)cn23)c1` (stereo not shown) [Compound 160], the IC50 in experiment [1] was less than 1000 nM. Further, the EC50 in experiment [2] is less than 1000 nM.
As to `CN(C(=O)OC(C)(C)C)c1ccc2ncc(-c3cc4cc[nH]c4cn3)n2c1` [Compound 161, tert-butyl (3-(1H-pyrrolo[2,3-c]pyridin-5-yl)imidazo[1,2-a]pyridin-6-yl)(methyl)carbamate], in experiment [1], the half-inhibitory concentration (IC50) is less than 1000 nM. The compound further displayed an EC50 in experiment [2] of 1000 to 10000 nM.
The like results for `CNc1ccc2ncc(-c3cc4cc[nH]c4cn3)n2c1` [Compound 162, N-methyl-3-(1H-pyrrolo[2,3-c]pyridin-5-yl)imidazo[1,2-a]pyridin-6-amine] were, in that order, less than 1000 nM and less than 1000 nM.
Take `CN(C(=O)OC(C)(C)C)c1ccc2ncc(-c3cccc4c3C(=O)NC4)n2c1` [Compound 164]: the IC50 in experiment [1] is less than 1000 nM. Also, the EC50 in experiment [2] is 1000 to 10000 nM.
In turn, `CN(C(=O)OC(C)(C)C)c1ccc2ncc(-c3cccc4ncsc34)n2c1` [Compound 167] gave an IC50 in experiment [1] of less than 1000 nM. Besides, in experiment [2], the EC50 was less than 1000 nM.
For `CN(C(=O)OC(C)(C)C)c1ccc2ncc(-c3nn4ccnc4s3)n2c1` [Compound 168], the IC50 in experiment [1] is less than 1000 nM. Moreover, the EC50 in experiment [2] is 1000 to 10000 nM.
For `CN(C(=O)OC(C)(C)C)c1ccc2ncc(-c3ccn4ccnc4c3)n2c1` [Compound 169], in experiment [1], the IC50 was less than 1000 nM. Further, the EC50 in experiment [2] lay in the range of 1000 to 10000 nM.
In experiment [1], `CNc1ccc2ncc(-c3cccc(NC(=O)C4CCOCC4)n3)n2c1` [Compound 171] gave an IC50 of less than 1000 nM. Further, in experiment [2], the concentration giving a half-maximal response (EC50) is less than 1000 nM.
The compound `CN(C(=O)OC(C)(C)C)c1ccc2ncc(-c3ccc(NC(=O)c4ccccc4)s3)n2c1` [Compound 181] returned an IC50 in experiment [1] of 1000 to 10000 nM. This compound also came in with an EC50 in experiment [2] of 1000 to 10000 nM.
`CNc1ccc2ncc(-c3nccc4[nH]ccc34)n2c1` [Compound 183] showed a 50% inhibitory concentration (IC50) in experiment [1] of 1000 to 10000 nM. The compound also returned an EC50 in experiment [2] of 1000 to 10000 nM.
The compound `CNc1ccc2ncc(-c3nn4ccnc4s3)n2c1` [Compound 185] had an IC50 in experiment [1] of 1000 to 10000 nM. Besides, the EC50 in experiment [2] fell in the range of 1000 to 10000 nM.
The compound `Ic1cnc2ccc(-n3cccn3)cn12` [Compound 201, 3-iodo-6-(1H-pyrazol-1-yl)imidazo[1,2-a]pyridine] showed an IC50 in experiment [1] of 1000 to 10000 nM. The compound further yielded an EC50 in experiment [2] of less than 1000 nM.
Consider `O=C1CCCN1c1ccc2ncc(-c3cccc4[nH]ccc34)n2c1` [Compound 205], for which the IC50 in experiment [1] is 1000 to 10000 nM. In experiment [2], this compound yielded an EC50 of less than 1000 nM.
In experiment [1], `C=CCN(C(=O)OC(C)(C)C)c1ccc2ncc(-c3cccc(N)c3)n2c1` [Compound 211, tert-butyl allyl(3-(3-aminophenyl)imidazo[1,2-a]pyridin-6-yl)carbamate] returned an IC50 of 1000 to 10000 nM. The compound also gave an EC50 in experiment [2] of less than 1000 nM.
The corresponding values for `CC(C)(C)OC(=O)N(C/C=C/c1cccc(N)c1)c1ccc2ncc(-c3cccc(N)c3)n2c1` [Compound 212, tert-butyl (E)-(3-(3-aminophenyl)allyl)(3-(3-aminophenyl)imidazo[1,2-a]pyridin-6-yl)carbamate] are 1000 to 10000 nM and less than 1000 nM.

(Values after patent publication US20240368168A1, “SARM1 ENZYME ACTIVITY INHIBITOR AND APPLICATION THEREOF” (ARTIVILA BIOPHARMA, priority 2021, published 2024).)
